Reference: PubChem BioAssay AID463204 (Broad Institute, 2010)
Calls of active or inactive are those of the source.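 The calls were made as follows: active = AC50 no more than ten times the top concentration tested, that is within one log above it; inconclusive = flat curve fit with activity between 30% and 70%, or invalid poor fit; inactive = AC50 beyond ten times the top tested dose.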

Test system: S. cerevisiae Mot1-301 ts growth rescue, BacTiter-Glo ATP luminescence
Assay: growth rescue of Mot1-301 ts yeast, confirmation, SUMOylation pathway inhibitor project, whole organism, S. cerevisiae, Mot1-301 ts mutant, luminescence, dose retest (AID 463204);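 also: growth at restrictive 38.5 degrees C of Mot1-301 OY566 strain; actives raise luminescence by restoring growth of the ts mutant at high temperature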

| SMILES | AC50 |
| --- | --- |
| COc1ccc(-c2noc(CSc3nc(-c4ccccc4)cc(=O)[nH]3)n2)cc1OC | > 42 µM (inactive) |
| O=S(=O)(NCc1ccco1)c1ccc2ccccc2c1 | > 42 µM (inactive) |
| COc1ccccc1-c1nc2ccccc2nc1-c1ccccc1OC | > 42 µM (inactive) |
| COc1ccc(Nc2oc(-c3cccs3)nc2C#N)cc1 | > 42 µM (inactive) |
| CCOC(=O)c1cnc2c(OC)cccc2c1N1CCN(c2ccccc2OC)CC1 | > 42 µM (inactive) |
| COc1cccc(S(=O)(=O)Nc2cccc(C(=O)N3CCOCC3)c2)c1 | > 42 µM (inactive) |
| C[C@@]12C(=O)Nc3ccc(F)cc3C(=O)N1[C@H]1c3ccccc3OC[C@@H]1[C@@H]2c1ccccc1 | 3.24 µM |
| COc1cccc(-c2nn(-c3ccccc3)cc2/C=C(/NC(=O)c2ccccc2)C(=O)O)c1 | > 42 µM (inactive) |
| CCn1c(SCC(N)=O)nnc1-c1cc2c(C)nn(-c3ccccc3)c2s1 | > 42 µM (inactive) |
| COc1cccc(NC(=O)Nc2cc(C(=O)NC(C)C)ccc2N2CC3CC(C2)c2cccc(=O)n2C3)c1 (configuration not stated) | > 42 µM (inactive) |
| COCC(C)n1c(C)cc(C(=O)CSc2ccc(NC(C)=O)cc2)c1C (configuration not stated) | > 42 µM (inactive) |
| C[C@H]1O[C@H]1P(=O)(O)O | > 42 µM (inactive) |
| O=C(O)C1CCCCC1C(=O)Nc1ccc(S(=O)(=O)N2CCCC2)cc1 (configuration not stated) | > 42 µM (inactive) |
| COc1ccc(S(=O)(=O)N2CCOC2CNC(=O)C(=O)NCc2ccncc2)cc1C (configuration not stated) | > 42 µM (inactive) |
| CC(=O)Nc1cccc2c1C(=O)N(c1ccccc1C)C2=O | > 42 µM (inactive) |
| C/C(O)=C(\N=Nc1cc(C)ccc1O)C(N)=O | > 42 µM (inactive) |
| COc1ccc(NC(=O)CN(C)C(=O)/C=C/c2cn(-c3ccccc3)nc2-c2ccc(C)cc2)cc1 | > 42 µM (inactive) |
| CCOc1ccc(NC(=O)CC2C(=O)N(c3ccccc3)C(=S)N2Cc2ccccn2)cc1 (configuration not stated) | > 42 µM (inactive) |
| Cc1ccsc1C(=O)NCCc1ccc(S(N)(=O)=O)cc1 | > 42 µM (inactive) |
| [N-]=[N+]=NCCN1CCC(O)CCC1=O (configuration not stated) | > 42 µM (inactive) |
| O=C(CCCc1nc(-c2ccc(Cl)cc2)no1)NC1CCCCC1 | > 42 µM (inactive) |
| COc1ccc(NC(=O)C2CCCN(C(=O)Nc3cccc(OC)c3)C2)cc1 (configuration not stated) | > 42 µM (inactive) |
| O=C(Nc1ccc(F)cc1F)N1CCCN(c2ccc(C(F)(F)F)cn2)CC1 | > 42 µM (inactive) |
| Cc1c(C(=O)N2CCOCC2)c(S(=O)(=O)Nc2cccc(Br)c2)c(C)n1C | > 42 µM (inactive) |

| SMILES | AC50 |
| --- | --- |
| COc1cc(C)c(Cl)c(C)c1S(=O)(=O)NCc1ccc2c(c1)OCO2 | > 42 µM (inactive) |
| CCCOC(=O)c1ccc(O)c(OC)c1 | > 42 µM (inactive) |
| O=C(COC(=O)c1ccc([N+](=O)[O-])o1)Nc1ncc(Cl)cc1Cl | 9.48 µM |
| COc1ccc2c(c1)[C@H]1[C@H](CO2)[C@H](c2ccccc2)[C@]2(C)C(=O)Nc3cc(F)ccc3C(=O)N12 | 7.87 µM |
| CN(C)CCNC(=O)c1scc2c1CCCC2 | 29.2 µM |
| Cc1ccc2c(c1)N(CC(=O)NCCCN1CCN(C)CC1)C(=O)CO2 | > 42 µM (inactive) |
| O=C(NC(=S)NNC(=O)c1ccccc1O)c1cccc([N+](=O)[O-])c1 | > 42 µM (inactive) |
| CC(C)(C)C(=O)Nc1ccc(C(=O)NCc2cccnc2)cc1 | > 42 µM (inactive) |
| CCN1C(=O)N(c2ccc(Cl)cc2)C(C)=CC1(C)C | > 42 µM (inactive) |
| Cc1cccn2c(=O)c3cc(C(=O)NCCc4ccccc4)sc3nc12 | > 42 µM (inactive) |
| CCCCc1nnc(NC(=O)CSc2nc(O)c(-c3ccccc3)c(=O)[nH]2)s1 | > 42 µM (inactive) |
| CCC(=O)Nc1ccc(S(=O)(=O)NCc2ccco2)cc1 | > 42 µM (inactive) |
| Nc1nc(SCc2nc3scc(-c4cccs4)c3c(=O)[nH]2)n[nH]1 | > 42 µM (inactive) |
| Cc1ccc(CNC(=O)CCn2cc(-c3ccc(C)cc3)nc2CCN)cc1 | > 42 µM (inactive) |
| Cc1cccc2nc(COc3ccc4ccccc4c3Br)cn12 | 11.9 µM |
| COc1ccc(-c2nc(NC(=O)CCNC(=O)c3ccco3)sc2C)cc1 | > 42 µM (inactive) |
| COC(=O)c1ccc(/C=N/NC(=O)C(=O)NCC2CCCO2)cc1 (configuration not stated) | > 42 µM (inactive) |
| COc1ccc(CNC(=O)c2cc(=O)c3cc(C)cc(C)c3o2)cc1 | > 42 µM (inactive) |
| Clc1cc(Br)ccc1OCCOCCN1CCOCC1 | > 42 µM (inactive) |
| O=C(C1CCN(S(=O)(=O)N2CCC3(CC2)OCCO3)CC1)N1CCC(Cc2ccccc2)CC1 | > 42 µM (inactive) |
| S=C(c1ccc(N2CCOCC2)cc1)N1CCCCC1 | > 42 µM (inactive) |
| COc1cc(/C=N/NC2=NS(=O)(=O)c3ccccc32)cc(OC)c1OC | > 42 µM (inactive) |
| COc1ccc2cc(C#N)c(Nc3cccc(F)c3)nc2c1 | > 42 µM (inactive) |
| O=C(CCC(=O)OC(C(=O)c1ccccc1)c1ccccc1)Nc1ccccc1 (configuration not stated) | > 21 µM (inactive) |

| SMILES | AC50 |
| --- | --- |
| COc1ccc(C2C(C(C)=O)=C(O)C(=O)N2CCO)c(OC)c1 (configuration not stated) | > 42 µM (inactive) |
| COC(=O)[C@H](Cc1ccccc1)NC(=O)NC(C)CCc1ccccc1 (some centres not stated) | > 42 µM (inactive) |
| CCn1nccc1C(=O)Nc1ccccc1OC | > 42 µM (inactive) |
| Cc1nc2ccccc2n(CC(=O)Nc2cc(Cl)cc(Cl)c2)c1=O | > 42 µM (inactive) |
| CCCCNC(=O)c1ccccc1NC(=O)C1=C(C)OCCS1 | > 42 µM (inactive) |
| O=C(N/N=C\c1cn(-c2ccccc2)nc1-c1ccccc1)c1ccc(Br)o1 | > 42 µM (inactive) |
| CCOc1cc(S(=O)(=O)NCc2ccc3c(c2)OCO3)c(C)cc1C | > 42 µM (inactive) |
| CC(C)(C)c1ccc(C(=O)COC(=O)CN2C(=O)NC3(CCCC3)C2=O)cc1 | > 42 µM (inactive) |
| CCS(=O)(=O)N1CCCC(C(=O)NCc2cccnc2)C1 (configuration not stated) | > 42 µM (inactive) |
| CCN(CC)C1CCN(C(=O)c2cc(COc3ccc(-n4cncn4)cc3)on2)C1 (configuration not stated) | > 42 µM (inactive) |
| NC1=NC2(CCCC2)N=C(Nc2ccccc2)N1 | > 42 µM (inactive) |
| N#C/C(=C\c1c(N(Cc2ccccc2)Cc2ccccc2)nc2ccccn2c1=O)C(N)=O | > 42 µM (inactive) |
| O=C(c1cccs1)N(C(=O)c1cccs1)c1ccc(Br)cn1 | 1.35 µM |
| CC(C)(C)NC(=O)C(c1cccs1)N(Cc1cccs1)C(=O)c1ccc(CN2CCOCC2)o1 (configuration not stated) | > 42 µM (inactive) |
| O=C(CN1CCN(Cc2ccc(Cl)cc2)CC1)N/N=C/c1ccncc1 | > 42 µM (inactive) |
| Cc1ccc(S(=O)(=O)N2CCCC2C(=O)NCCc2ccccc2)cc1 (configuration not stated) | > 42 µM (inactive) |
| CCOC(=O)c1ccccc1NC(=O)CSc1ccc(-c2ccccn2)nn1 | > 42 µM (inactive) |
| Cc1cc(OCC(=O)NCC2CCC(C(=O)O)CC2)c2c(C)c(C)c(=O)oc2c1 (configuration not stated) | > 42 µM (inactive) |
| CC1(C)CNc2cc([N+](=O)[O-])ccc2S1 | 27.7 µM |
| CC(=O)Nc1ccccc1C(=O)C(=O)Nc1ccc(C(=O)NCC2CCCO2)cc1 (configuration not stated) | > 42 µM (inactive) |
| CCOc1ccc(CCNC(=O)COC(=O)c2cccc(OC)c2O)cc1OCC | > 42 µM (inactive) |
| CCOC(=O)C1(Cc2cccc(Cl)c2)CCCN(C(=O)CCOC)C1 (configuration not stated) | > 42 µM (inactive) |
| CCCNC(=O)COC(=O)CCC(=O)c1cccs1 | > 42 µM (inactive) |
| Fc1cccc(Cl)c1CSc1nnc(CN2CCOCC2)n1-c1ccccc1 | > 42 µM (inactive) |
